Experimental data: publication PMC6720901, “Psoromic Acid, a Lichen-Derived Molecule, Inhibits the Replication of HSV-1 and HSV-2, and Inactivates HSV-1 DNA Polymerase: Shedding Light on Antiherpetic Properties” (Molecules, 2019)
Read-outs that look alike come from different tables or passages of the source.

Experiments:
[1] = Cytotoxicity on Vero cells by neutral red dye-uptake assay; type: cell-based; settings: African green monkey, Vero cell monolayers, neutral red dye uptake (Table 1)
Protocol: The cytotoxic effect of standard PA (purity >98%; kindly obtained from University of Chemistry and Technology Prague, Prague, Czech Republic), PA in combination with ACV (Sigma-Aldrich, Berlin, Germany) as well as standard ACV on Vero cells was assessed using the neutral red dye-uptake assay as previously described with slight modification. Briefly, the test compounds were dissolved in 0.2% dimethyl sulfoxide (DMSO). Further, stock solutions were prepared in deionized water and sterilized at a concentration of 620 μM. Vero cell monolayers cultivated in 96-well microtiter plates with two-fold serial dilutions of the test compounds were incubated for 48 h at 37°C in 5% CO2. After incubation, the morphological alterations of the treated cells were assessed using an inverted optical microscope (Leitz, Wetzlar, Germany) and the maximum non-toxic concentrations (MNTC) were determined. The concentrations of test substances that are necessary to decrease the cell viability by 50% (CC50) were assessed as compared with the untreated control cells. In order to acquire statistically relevant data for final evaluation, the cytotoxicity of test compounds was measured in at least three independent experiments conducted in duplicate.

HSV-1 strain KOS = assay: Anti-HSV-1 plaque reduction assay in infected Vero cells; type: cell-based, herpes simplex virus type 1 (HSV-1); settings: for IC50: 72 h; for SI (CC50/IC50): selectivity index, Vero CC50 / HSV-1 IC50
Protocol: Vero cells were infected with HSV-1 strain KOS (an ACV-sensitive strain) obtained from MUH, Prague, Czech Republic and propagated in Vero cells. Viral stocks were then titrated based on plaque forming unit (PFU) count by plaque assay as previously described. Viral stocks were stored at −80^◦C for further use.
The inhibitory activity against the replication of HSV-1 was evaluated using a plaque reduction assay as previously described. ACV was used as a reference drug. Briefly, cell monolayers were infected with 100 PFU of HSV-1 in MEM containing 1.5% carboxymethyl cellulose (CMC, Sigma-Aldrich, Berlin, Germany) in the presence or absence of test compounds at different concentrations. Afterward, the cells were subjected to incubation for 72 h at 37 °C, then fixed and stained using naphthol blue-black (Sigma-Aldrich, Berlin, Germany). Subsequently, the plaques were counted. IC50 values (concentrations of test compounds required to decrease the number of plaques by 50%) were determined as compared with untreated control cells. A selectivity index (SI) value was calculated as the ratio CC50/IC50.

HSV-1 DNA polymerase = target: T1, HSV-1 DNA polymerase (Human herpesvirus 1, UniProt P04292); assay: Radiolabeled nucleotide-based HSV-1 DNA polymerase inhibition assay; type: biochemical; settings: for type of inhibition: ascertained with Cheng–Prusoff equation; for IC50: 37 °C, 30 min; for Ki: calculated by Cheng–Prusoff equation
T1 construct: HSV-1 DNA polymerase was extracted from HSV-1-infected Vero cells; made in house; host or cells: Vero cells infected with HSV-1 (KOS strain); virus-encoded native enzyme, purified on DEAE-cellulose and phosphate cellulose columns
Protocol: HSV-1 DNA polymerase was extracted from HSV-1-infected Vero cells following the procedure as previously designated. Briefly, Vero cells were infected with HSV-1 (KOS strain) at a multiplicity of infection (MOI) equal to 5.0 for 12 h. Afterward, the infected cells were lysed with a buffer containing 0.25 M potassium phosphate (pH = 7.5), 10 mM 2-mercaptoethanol (2-ME), 1mM EDTA, 0.5% Triton X-100, 0.5 mM phenylmethane sulfonylfluoride (PMSF), and 20% glycerol, and subsequently sonicated and centrifuged at 10,000× g for 10 min at 4 °C. The resulting supernatant was additionally centrifuged at 100,000× g for 90 min at 4 °C and the supernatant was dialyzed against 10 mM potassium phosphate (pH = 7.5) with 10 mM 2-ME, 1mM EDTA, and 20% glycerol. Then, the obtained material was eluted in two ion-exchange chromatography columns (DEAE-cellulose and phosphate cellulose) (Sigma-Aldrich, Prague, Czech Republic) supplemented with potassium phosphate ([…]) as previously described.
Extracted HSV-1 DNA polymerase was evaluated for its purity and possible contamination with cellular enzymes such as type B DNA polymerase (α and δ polymerases) using polyclonal antibodies raised against these cellular enzymes following the procedure as previously described. The confirmation of the purity of HSV-1 DNA polymerase was achieved by using a kinetic assay in the presence or absence of ammonium sulfate (100 mM; an inhibitor of possible contaminant cellular polymerases) following the previously reported protocol.
A radiolabeled nucleotide-based assay was used to evaluate the inhibitory properties of PA along with the standard drugs aphidicolin (a known competitive inhibitor of HSV-1 DNA polymerase with respect to dTTP incorporation; purchased from Sigma-Aldrich, Prague, Czech Republic with purity ≥98%) and ACV triphosphate (ACV-TP) (a known competitive inhibitor of HSV-1 DNA polymerase with respect to dGTP incorporation; obtained from Sierra Bioresearch (Tucson, AZ, USA) with purity >98%) against HSV-1 DNA polymerase based on the incorporation of dTTP as a substrate with some modifications. Briefly, the enzyme assay was performed following the first-order kinetics conditions, where the enzymatic reaction initiated by pre-incubating 3 U/mL of HSV-1 DNA polymerase with a mixture containing 50 mM Tris-HCl (pH = 8), MgCl2 (8 mM), DTT (0.5 mM), bovine serum albumin (0.5 µg/mL), ammonium sulfate (100 mM; an inhibitor of possible contaminant cellular polymerases), 100 µM of each nucleotide (dATP, dGTP, dCTP, and [^3H]-dTTP—0.5 µCi/nmol) (obtained from MUH, Prague, Czech Republic) and activated salmon-sperm DNA (12 µg/mL). […] [^3H]-dGTP—0.5 µCi/nmol (obtained from MUH, Prague, Czech Republic) was used when the enzymatic assay was performed with ACV-TP.
The obtained mixture was further incubated with the test compounds (at concentrations ranging from 0.1 to 3 µM) at 37 °C for 30 min and afterward, the reaction was stopped by adding trichloroacetic acid (TCA; 10%). The resulting radioactivity was adsorbed over GF/C fiberglass membranes (Whatman; Sigma-Aldrich, Berlin, Germany) and counted by liquid scintillation (Tri-Carb 2600, Packard Inc., Downers Grove, IL, USA). All measurements were conducted in triplicate and IC50 values were calculated by nonlinear regression. Ki values (inhibition constant; concentration required to produce half maximum inhibition) were calculated using the Cheng–Prusoff equation as previously described.

T1 sequence (P04292 whole entry): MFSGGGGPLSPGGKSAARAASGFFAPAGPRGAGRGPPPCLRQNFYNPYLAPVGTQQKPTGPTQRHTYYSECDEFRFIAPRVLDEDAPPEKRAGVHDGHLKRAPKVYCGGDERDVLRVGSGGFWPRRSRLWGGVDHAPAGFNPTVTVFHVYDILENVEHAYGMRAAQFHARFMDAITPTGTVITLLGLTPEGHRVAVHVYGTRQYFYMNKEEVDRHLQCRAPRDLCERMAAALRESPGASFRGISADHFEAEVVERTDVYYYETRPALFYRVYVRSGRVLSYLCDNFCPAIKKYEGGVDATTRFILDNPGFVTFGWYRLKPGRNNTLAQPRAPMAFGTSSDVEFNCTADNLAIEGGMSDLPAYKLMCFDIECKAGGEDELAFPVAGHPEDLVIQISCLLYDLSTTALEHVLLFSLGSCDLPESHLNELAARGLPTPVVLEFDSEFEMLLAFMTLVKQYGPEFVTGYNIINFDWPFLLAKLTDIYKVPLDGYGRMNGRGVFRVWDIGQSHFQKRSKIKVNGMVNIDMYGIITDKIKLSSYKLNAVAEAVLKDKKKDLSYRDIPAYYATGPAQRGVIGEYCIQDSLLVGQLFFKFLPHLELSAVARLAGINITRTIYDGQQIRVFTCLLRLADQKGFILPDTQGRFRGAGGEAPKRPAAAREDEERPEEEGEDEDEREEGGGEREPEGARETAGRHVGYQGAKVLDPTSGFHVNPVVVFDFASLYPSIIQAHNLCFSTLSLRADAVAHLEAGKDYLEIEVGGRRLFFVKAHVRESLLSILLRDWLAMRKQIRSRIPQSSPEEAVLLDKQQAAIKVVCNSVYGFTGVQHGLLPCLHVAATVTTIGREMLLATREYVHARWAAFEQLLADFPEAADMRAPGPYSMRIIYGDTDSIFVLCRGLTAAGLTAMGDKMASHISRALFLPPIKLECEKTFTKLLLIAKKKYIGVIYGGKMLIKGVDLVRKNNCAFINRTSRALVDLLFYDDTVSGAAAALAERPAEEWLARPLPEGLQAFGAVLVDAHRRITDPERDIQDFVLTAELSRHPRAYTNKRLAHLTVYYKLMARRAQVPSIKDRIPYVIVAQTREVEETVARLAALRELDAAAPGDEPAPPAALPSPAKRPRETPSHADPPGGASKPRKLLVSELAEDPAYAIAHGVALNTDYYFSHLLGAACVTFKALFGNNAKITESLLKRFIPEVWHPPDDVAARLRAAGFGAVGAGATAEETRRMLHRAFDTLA

Row | Structure (SMILES) | CC50 at 48 h [1] [nM] | IC50 (HSV-1 strain KOS; Human alphaherpesvirus 1, HSV-1 replication, plaque reduction, Vero cells, read-out: IC50) [nM] | SI (CC50/IC50) (HSV-1 strain KOS) | type of inhibition (HSV-1 DNA polymerase) | IC50 (HSV-1 DNA polymerase; with respect to dGTP incorporation ([3H]-dGTP)) [nM] | Ki (HSV-1 DNA polymerase; with respect to dGTP incorporation) [nM] | IC50 (HSV-1 strain KOS; Human alphaherpesvirus 1, Vero) [nM] | IC50 (HSV-1 DNA polymerase; with respect to dTTP incorporation ([3H]-dTTP)) [nM] | Ki (HSV-1 DNA polymerase; with respect to dTTP incorporation) [nM]
1 | Nc1nc2c(ncn2COCCO)c(=O)[nH]1 [ACV, acyclovir] | > 310000 | 2600 ± 380 | >119.2 | – | – | – | – | – | –
2 | Nc1nc2c(ncn2COCCOP(=O)(O)OP(=O)(O)OP(=O)(O)O)c(=O)[nH]1 [ACV-TP, acyclovir triphosphate] | – | – | – | competitive inhibitors | 900 ± 630 | 500 ± 340 | – | – | –
3 | COc1cc(C(=O)O)c2c(c1C)OC(=O)c1c(C)cc(O)c(C=O)c1O2 [PA, Psoromic acid] | > 310000 | – | >163.2 | competitive inhibitors | – | – | 1900 ± 420 | 700 ± 510 | 300 ± 420
